From patent US20100166781A1, “HAT ACETYLATION PROMOTERS AND USES OF COMPOSITIONS THEREOF IN PROMOTING IMMUNOGENICITY” (Tapimmune, Inc., priority 2008, published 2010)
“Also recorded” adds a separate entry of the source. Read-outs that look alike come from different tables or passages of the source.

Assays:
[1] = system: TAP-1 promoter; assay: Chromatin immunoprecipitation with anti-RNA pol II antibody, real-time PCR of TAP-1 promoter; type: cell-based, murine
Procedure: (§1) As the low level of histone H3 acetylation in TAP-1 promoter seems to contribute to TAP-1 deficiency in carcinomas, a further investigation was conducted to determine whether treatment of TAP-deficient carcinoma cells with TSA would increase the TAP-1 expression in the cells. […] Relative RNA pol II or acetyl-histone H3 levels were determined as the ratio of copy numbers of the eluted TAP-1 promoter and copy numbers of the corresponding inputs. The smallest ratio was arbitrarily determined as 1. Columns, average of three to six experiments; bars, SEM. *P<0.05 compared with cells that expressed higher MHC class I in the same assay.

[2] = system: TAP-1 promoter; assay: Chromatin immunoprecipitation with anti-acetyl-histone H3 antibody, real-time PCR of TAP-1 promoter; type: cell-based, murine
Procedure: as §1

[3] = system: TAP-1 promoter; assay: Luciferase assay in cells stably transfected with pTAP-1-luc construct; type: cell-based, murine
Description: A plasmid containing an EGFP gene driven by the TAP-1 promoter (pTAP-1-EGFP) was constructed as described previously. A similar construct containing a luciferase gene driven by the TAP-1 promoter (pTAP-1-luc) was created by inserting the TAP-1 promoter between the Sac I and BgI II sites of pGL4.14[luc2/Hygro] vector (Promega, Madison, Wis.). Several truncated TAP-1 promoter constructs were also made by cloning its 5′-end truncations into pGL4.14[luc2/Hygro] vector. Primers were used for PCR amplifications of the full TAP-1 promoter and its truncations.
TC-1, D11, A9, PA and LMD cells were transfected with the TAP-1 promoter constructs or the promoterless pGL4.14[luc2/Hygro] vector using ExGen 500 in vitro Transfection Reagent (Fermentas). Transient transfectants were analyzed between 12-72 hours after transfection. To obtain stable transfectants, the transfected cells were selected for 3 weeks in the presence of the following concentrations of Hygromycin B (Sigma): 550 ng/ml for TC-1 cells, 250 ng/ml for D11, A9 and LMD cells, 200 ng/ml for PA cells.
Relative luciferase activity (RLA) in transient transfectants was assessed by dual luciferase assay (Promega) within 12-72 hours after transfection. RLA in stable transfectants (3 weeks-1 month post-transfection) was assessed by Bright-Glo luciferase assay (Promega), and determined by subtracting the results with corresponding values obtained from transfection with promoterless pGL4.14[luc2/Hygro] vector alone and by further normalizing the values with copy number of plasmids integrated into the genome of each stable transfectant.

[4] = system: TAP-1; assay: RT-PCR and Western blot analysis of TAP-1 expression; type: cell-based, murine
Procedure: Fifty micrograms of proteins per sample were separated through 6% (p300, CBP and TAP-1) or 15% (β-actin and acetyl-histone H3) SDS-PAGE. Proteins were transferred to a nitrocellulose membrane (Bio-rad, Hercules, Calif.). Blots were blocked with 5% skim milk in PBS and incubated with appropriate Ab dilutions. […] Secondary Ab used was HRP-conjugated goat anti-rabbit secondary Ab (Jackson Immunoresearch Lab., West Grove, Pa.). For the loading controls, anti β-actin mouse monoclonal Ab (Sigma) was used, followed by HRP-conjugated goat anti-mouse secondary Ab (Pierce, Rockford, Ill.). Blots were developed using Lumi-light reagents (Pierce).
Western blot analysis of TAP-1 expression was performed using lysate of cells that were pre-treated with 20 to 200 ng/ml TSA for 24 to 48 hours, and representative data from cells treated with 100 ng/ml TSA for 24 hours (PA and LMD) or 48 hours (TC-1, D11 and A9) are shown in FIG. 4A.

[5] = molecular target: surface H-2K^b (Mus musculus, UniProt P01901); assay: Flow cytometric analysis of surface H-2K^b expression; type: cell-based, murine
Chain of surface H-2K^b (P01901 whole entry, looked up): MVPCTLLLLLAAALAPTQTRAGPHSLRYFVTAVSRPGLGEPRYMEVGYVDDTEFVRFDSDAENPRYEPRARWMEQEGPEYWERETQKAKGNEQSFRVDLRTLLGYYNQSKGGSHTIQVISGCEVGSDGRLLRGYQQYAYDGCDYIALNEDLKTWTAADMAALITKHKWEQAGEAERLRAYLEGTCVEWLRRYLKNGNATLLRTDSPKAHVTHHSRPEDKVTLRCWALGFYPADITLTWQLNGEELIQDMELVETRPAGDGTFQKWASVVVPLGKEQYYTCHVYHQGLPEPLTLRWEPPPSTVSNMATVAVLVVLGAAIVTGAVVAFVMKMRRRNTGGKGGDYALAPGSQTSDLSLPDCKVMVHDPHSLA
Procedure: Cells untreated (shaded areas) or treated with 100 ng/ml TSA (thick lines), or 50 ng/ml IFN-γ (thin lines), were stained with PE-conjugated anti-H-2K^bmAb. Data are representatives of three experiments.

[6] = system: VSV-infected cancer cells; type: cell-based, murine; details: for enhancement of CTL killing / enhancement of levels of killing: treatment 24 hours prior to VSV infection; for enhancement of CTL killing: effector:target 22:1
[7] = system: A9 tumor; assay: A9 tumor growth in C57BL/6 syngeneic mice; type: in vivo, C57BL/6 mice; details: A9 cells s.c., 500 μg/kg daily i.p. for 20 days from day 7, versus DMSO control
Procedure: A total of 3×10^5 cells of TC-1 or A9 in PBS were injected subcutaneously into seven-week-old female C57BL/6 syngeneic mice (Charles River, St. Constant, QC). Mice were assigned to 3 groups of 4 animals. TSA was dissolved in DMSO to a concentration of 0.2 mg/ml. Daily treatment with 50 ul TSA (500 μg/kg) or DMSO (vehicle control) was administered via intraperitoneal injection for 20 days, starting on day 7 after injection with tumor cells. Mice were weighed weekly, and their behavior and food intake were monitored throughout the course of the experiment. Tumors were measured 3 times a week and tumor volume was calculated using the formula: tumor volume=length×width×height×π/6. The study period was determined by the size of the tumors in the A9 group treated with DMSO vehicle control.
TC-1 and A9 cells were cultured in vitro and were passaged less than 8 times before 3×10^5 of each group of the cells were injected subcutaneously into 7 week-old female C57BL/6 syngeneic mice. Daily treatment with TSA or DMSO vehicle control began on day 7 after cells injection, as the animals started to grow palpable A9 tumors. […] No tumor was detected beyond 1 month after injection with less than 3×10^5 TC-1 tumor cells (data not shown).

[8] = system: A9 tumour; assay: A9 tumor growth in immunodeficient Rag1 mice; type: in vivo; details: TSA treatment
Procedure: A9 tumor growth was suppressed in C57B1/6 mice treated daily for 20 days with 500 μg/kg of TSA (black bars) as compared to those treated with DMSO vehicle control (white bars). However, TSA treatment had no affect on A9 tumour growth in Ragl^“7” mice.

[9] = system: LMP-2; assay: RT-PCR analysis of APM components: LMP-2; details: HPV-positive carcinoma cell lines, particularly TAP-deficient cells
[10] = system: TAP-2; assay: RT-PCR analysis of APM components: TAP-2; details: HPV-positive carcinoma cell lines, particularly TAP-deficient cells
[11] = system: tapasin; assay: RT-PCR analysis of APM components: tapasin; details: HPV-positive carcinoma cell lines, particularly TAP-deficient cells
[12] = system: TAP-1 promoter; assay: Chromatin immunoprecipitation with anti-CBP antibody, real-time PCR of 5'-end of TAP-1 promoter; details: LMD, D11 and A9 cells, IFN-γ treatment

CC(/C=C/C(=O)NO)=C\[C@@H](C)C(=O)c1ccc(N(C)C)cc1 [TSA, trichostatin A]
level of RNA pol II binding to TAP-1 promoter ([1]; TSA treatment, TAP-deficient cells of HPV-positive and prostate carcinoma models): to similar levels as in TAP-expressing cells | recruitment of RNA pol II complex to the TAP-1 promoter ([1]; TSA treatment, most cell lines, particularly TAP-deficient cells): enhanced | levels of acetyl-histone H3 in TAP-1 promoter ([2]; TSA treatment, all cell lines tested): did not significantly alter | TAP-1 promoter activity ([3]; HPV-positive carcinoma model, TAP-deficient cells): to similar levels as in TAP-expressing cells | TAP-1 promoter activity (luc expression) ([3]; TAP-deficient cells stably transfected with pTAP-1-luc): increased significantly | TAP-1 promoter activity ([3]; prostate carcinoma model, LMD cells): statistically significant improvement | Optimal dose for optimal induction of TAP-1 expression ([4]; 24 hours in LMD, CMT.64 and B16, 48 hours in D11 and A9): 100 ng/mL | expression of TAP-1 ([4]; RT-PCR and Western blot, 100 ng/ml for 24 h (PA, LMD) or 48 h (TC-1, D11, A9)): up-regulated | TAP-1 expression upon increasing the dose ([4]; Western blot, TAP-deficient cells, 20 to 200 ng/ml for 24 to 48 hours): increasing levels of TAP-1 expression | increase of surface expression H-2K^b ([5]; MHC class I-deficient cells, 100 ng/ml TSA): approximately 10 fold | surface H-2K^b levels ([5]; PA and TC-1 cells (originally high surface H-2K)): remained the same | enhancement of CTL killing ([6]; VSV-infected A9 cells): ~7 fold | enhancement of levels of killing ([6]; VSV-infected B16 cells): 20 fold | enhancement of levels of killing ([6]; VSV-infected CMT.64 cells): 5 fold | enhancement of CTL killing ([6]; VSV-infected D11 cells): ~6 fold | enhancement of CTL killing ([6]; VSV-infected TC-1 cells): approximately 1.4 fold | tumor growth [7]: suppressed; also recorded: slower | tumour growth [8]: no affect | expression of LMP-2 [9]: up-regulation | expression of TAP-2 [10]: up-regulation | expression of tapasin [11]: up-regulation

B1: IFN-γ: potent inducer of TAP-1 and surface MHC class I expression in cancer cells, used as positive control (protein, UniProt P01579 24-161, looked up)
Interferon gamma: QDPYVKEAENLKKYFNAGHSDVADNGTLFLGILKNWKEESDRKIMQSQIVSFYFKLFKNFKDDQSIQKSVETIKEDMNVKFFNSNKKKRDDFEKLTNYSVTDLNVQRKAIHELIQVMAELSPAAKTGKRKRSQMLFRG
level of RNA pol II in TAP-1 promoter ([1]; IFN-γ treatment): increased | level of acetyl-histone H3 in TAP-1 promoter ([2]; IFN-γ treatment): increased | histone H3 acetylation in TAP-1 promoter ([2]; TAP-deficient cells, IFN-γ compared with TSA): to much higher levels than TSA did | surface H-2K^b expression ([5]; all cell lines, 50 ng/ml IFN-γ): increased | level of killing by CTL ([6]; all VSV-infected cell lines, IFN-γ treatment): maximal induction | expression of LMP-2 [9]: inducible | expression of TAP-2 [10]: inducible | CBP binding to TAP-1 promoter [12]: increase
